# Results reported in ChEMBL document CHEMBL1201862, “PubChem BioAssay data set” (2004).
# The source made the active and inactive calls.
# Assays:
# [1] = NIH-3T3 fibroblast cytotoxicity, dose response, cytotoxicity control, cell-based, fluorescence, Alamar Blue, secondary assay (AID 2327); format: functional;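 note: NIH-3T3 mouse fibroblasts cultured with fluconazole at 8 µg/mL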
# Galanin receptor type 2 = Galanin receptor type 2 (Homo sapiens, UniProt O43603); test: Dose Response cell-based high-throughput screening assay to identify antagonists of galanin receptor 2 (GALR2). [Related pubchem assays: 828, 866 ]; format: functional
# [2] = C. albicans growth with fluconazole, confirmation, fluorescence, retest (AID 2467); format: functional, cell-based
# [3] = target: T1, Serine/threonine-protein phosphatase (Candida dubliniensis (strain CD36 / CBS 7987 / NCPF 3949 / NRRLY-17841) (Yeast), UniProt B9W6M3); test: calcineurin pathway inhibitors in yeast reporter, dose response, S. cerevisiae, CDRE-lacZ, luminescence, secondary (AID 2388); format: functional, cell-based;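 note: yeast reporter cells carrying a calcineurin-responsive lacZ construct stimulated with calcium chloride; luminescent beta-galactosidase reporter signal in whole cells rather than isolated phosphatase activity; potency for inhibition where a drop in reporter signal means calcineurin blockade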
# T1 sequence (B9W6M3 whole entry): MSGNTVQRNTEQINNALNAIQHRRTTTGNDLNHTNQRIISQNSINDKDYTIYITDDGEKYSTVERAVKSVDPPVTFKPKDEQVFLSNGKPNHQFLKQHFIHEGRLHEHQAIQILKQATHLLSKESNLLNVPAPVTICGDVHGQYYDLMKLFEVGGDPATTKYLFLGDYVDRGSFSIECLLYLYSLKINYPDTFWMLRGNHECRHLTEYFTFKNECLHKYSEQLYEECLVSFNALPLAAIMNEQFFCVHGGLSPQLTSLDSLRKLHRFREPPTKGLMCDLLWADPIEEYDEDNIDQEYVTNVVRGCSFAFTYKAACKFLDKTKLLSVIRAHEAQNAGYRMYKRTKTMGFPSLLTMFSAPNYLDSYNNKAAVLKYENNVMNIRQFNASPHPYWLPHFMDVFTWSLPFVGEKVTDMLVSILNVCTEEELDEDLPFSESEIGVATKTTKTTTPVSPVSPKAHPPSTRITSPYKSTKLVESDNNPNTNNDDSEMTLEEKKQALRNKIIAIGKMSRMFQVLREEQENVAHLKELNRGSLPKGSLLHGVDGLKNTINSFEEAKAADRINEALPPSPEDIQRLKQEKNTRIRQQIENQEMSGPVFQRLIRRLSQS
# INS1 = test: beta cell apoptosis inhibitors, cytokine rescue, dose response, luminescence, retest (AID 449756); format: functional, cell-based; details: Rattus norvegicus;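 note: cell death triggered by IL-1 beta plus TNF-alpha plus IFN-gamma mixture; protective hits raise ATP signal compared with cytokine alone wells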
# [4] = target: ATP-dependent molecular chaperone HSP82 (Candida albicans (strain WO-1) (Yeast), UniProt C4YTQ8); test: loss of DOC-induced GRE-beta-galactosidase reporter signal, dose response, Hsp90 inhibitor project, S. cerevisiae, luminescence (AID 2400); format: functional, cell-based;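 note: beta-galactosidase luminescence from glucocorticoid response element reporter as proxy for Hsp90 function; inhibitor potency where signal loss means Hsp90 inhibition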
# Protein Wnt-3a = Protein Wnt-3a (Mus musculus, UniProt P27467); test: Wnt3a-driven reporter signaling inhibition, dose response, selectivity assay for Gli-SUFU antagonist project, Wnt-LIGHT cells, luminescence (AID 651570); format: functional; details: read-out: IC50_Mean;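 note: Wnt-LIGHT reporter cells stimulated with conditioned medium from Wnt3a-producing cells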
# [5] = target: Serine/threonine-protein phosphatase PP1-alpha catalytic subunit (Homo sapiens, UniProt P62136); test: PP1 phosphatase inhibitors, dose response, biochemical, fluorescence (AID 2394)
# [6] = microbe, parasite or virus in culture; format: functional; details: Mycobacterium tuberculosis
# [7] = target: Serine/threonine-protein phosphatase (Homo sapiens, UniProt Q9BPW0); test: PP5 phosphatase inhibitors, dose response, biochemical, fluorescence (AID 2395)
# [8] = target: T2, Replicative DNA helicase DnaB (Mycobacterium tuberculosis, UniProt P9WMR3); test: DnaB intein splicing inhibitors, dose response, biochemical, cell-free fluorescence (AID 449749); format: functional
# T2 sequence (P9WMR3 whole entry): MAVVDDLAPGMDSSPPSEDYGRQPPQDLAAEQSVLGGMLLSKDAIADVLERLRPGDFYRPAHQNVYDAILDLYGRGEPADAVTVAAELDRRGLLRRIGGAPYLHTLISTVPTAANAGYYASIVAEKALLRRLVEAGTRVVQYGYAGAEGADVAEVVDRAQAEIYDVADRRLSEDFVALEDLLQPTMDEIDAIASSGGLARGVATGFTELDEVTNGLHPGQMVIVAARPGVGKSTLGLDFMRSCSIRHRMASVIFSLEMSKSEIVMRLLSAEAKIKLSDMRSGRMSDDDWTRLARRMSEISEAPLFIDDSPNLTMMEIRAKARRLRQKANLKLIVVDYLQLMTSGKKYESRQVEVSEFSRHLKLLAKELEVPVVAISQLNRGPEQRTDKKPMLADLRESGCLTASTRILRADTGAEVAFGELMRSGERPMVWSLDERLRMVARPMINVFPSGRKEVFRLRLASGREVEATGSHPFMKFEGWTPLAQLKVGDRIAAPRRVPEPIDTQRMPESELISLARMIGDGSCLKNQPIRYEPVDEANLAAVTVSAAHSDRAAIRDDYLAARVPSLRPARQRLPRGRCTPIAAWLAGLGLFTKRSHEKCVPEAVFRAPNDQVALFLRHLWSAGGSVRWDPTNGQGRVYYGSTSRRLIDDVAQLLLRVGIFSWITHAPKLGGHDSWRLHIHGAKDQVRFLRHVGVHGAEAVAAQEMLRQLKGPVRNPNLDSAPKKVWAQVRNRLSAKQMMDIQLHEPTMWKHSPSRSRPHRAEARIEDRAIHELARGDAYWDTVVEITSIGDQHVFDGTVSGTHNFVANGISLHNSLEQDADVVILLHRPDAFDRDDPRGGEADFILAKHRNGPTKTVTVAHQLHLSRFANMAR
# [9] = target: T3, Apoptotic protease-activating factor 1 (Homo sapiens, UniProt O14727); format: functional
# T3 sequence (O14727 whole entry): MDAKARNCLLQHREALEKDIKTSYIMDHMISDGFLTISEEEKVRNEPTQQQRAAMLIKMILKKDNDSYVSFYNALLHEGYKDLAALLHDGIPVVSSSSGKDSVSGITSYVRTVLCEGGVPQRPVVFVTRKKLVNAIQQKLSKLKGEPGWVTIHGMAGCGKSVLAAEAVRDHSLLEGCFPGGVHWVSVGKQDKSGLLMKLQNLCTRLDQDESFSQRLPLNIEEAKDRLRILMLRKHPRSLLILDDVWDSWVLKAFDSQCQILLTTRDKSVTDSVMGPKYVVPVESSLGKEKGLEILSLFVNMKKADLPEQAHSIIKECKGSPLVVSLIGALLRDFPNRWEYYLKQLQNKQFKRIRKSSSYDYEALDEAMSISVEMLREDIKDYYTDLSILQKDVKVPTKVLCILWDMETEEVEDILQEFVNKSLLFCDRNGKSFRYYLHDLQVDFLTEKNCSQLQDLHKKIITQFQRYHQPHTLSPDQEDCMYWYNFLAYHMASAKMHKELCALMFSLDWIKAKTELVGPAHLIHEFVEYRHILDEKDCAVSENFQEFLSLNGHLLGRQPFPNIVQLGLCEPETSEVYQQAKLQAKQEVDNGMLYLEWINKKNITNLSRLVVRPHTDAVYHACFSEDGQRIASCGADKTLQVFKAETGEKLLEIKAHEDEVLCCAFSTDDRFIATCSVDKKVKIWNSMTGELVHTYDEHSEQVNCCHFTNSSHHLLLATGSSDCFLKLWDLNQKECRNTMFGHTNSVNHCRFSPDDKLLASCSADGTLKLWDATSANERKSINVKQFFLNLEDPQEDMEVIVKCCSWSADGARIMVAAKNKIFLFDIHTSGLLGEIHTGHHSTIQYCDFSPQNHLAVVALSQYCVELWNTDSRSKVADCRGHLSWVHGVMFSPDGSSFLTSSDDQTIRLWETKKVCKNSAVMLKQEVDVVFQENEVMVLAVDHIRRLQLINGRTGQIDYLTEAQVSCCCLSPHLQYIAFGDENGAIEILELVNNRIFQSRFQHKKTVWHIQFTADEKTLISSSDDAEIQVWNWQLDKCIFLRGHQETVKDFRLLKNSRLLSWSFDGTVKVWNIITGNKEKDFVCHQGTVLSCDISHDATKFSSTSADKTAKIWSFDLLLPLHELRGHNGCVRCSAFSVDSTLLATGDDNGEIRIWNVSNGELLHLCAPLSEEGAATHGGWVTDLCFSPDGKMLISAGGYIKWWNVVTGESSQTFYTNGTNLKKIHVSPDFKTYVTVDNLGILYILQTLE
# Protein RecA = target: T4, Protein RecA (Mycobacterium tuberculosis, UniProt P9WHJ3); test: Fluorescence Cell-Free Homogeneous Dose Retest to Identify Inhibitors of RecA-Intein Splicing Activity. [Related pubchem assays (depositor defined):AID2097, AID2223, AID489010, AID492950]; format: functional
# T4 sequence (P9WHJ3 whole entry): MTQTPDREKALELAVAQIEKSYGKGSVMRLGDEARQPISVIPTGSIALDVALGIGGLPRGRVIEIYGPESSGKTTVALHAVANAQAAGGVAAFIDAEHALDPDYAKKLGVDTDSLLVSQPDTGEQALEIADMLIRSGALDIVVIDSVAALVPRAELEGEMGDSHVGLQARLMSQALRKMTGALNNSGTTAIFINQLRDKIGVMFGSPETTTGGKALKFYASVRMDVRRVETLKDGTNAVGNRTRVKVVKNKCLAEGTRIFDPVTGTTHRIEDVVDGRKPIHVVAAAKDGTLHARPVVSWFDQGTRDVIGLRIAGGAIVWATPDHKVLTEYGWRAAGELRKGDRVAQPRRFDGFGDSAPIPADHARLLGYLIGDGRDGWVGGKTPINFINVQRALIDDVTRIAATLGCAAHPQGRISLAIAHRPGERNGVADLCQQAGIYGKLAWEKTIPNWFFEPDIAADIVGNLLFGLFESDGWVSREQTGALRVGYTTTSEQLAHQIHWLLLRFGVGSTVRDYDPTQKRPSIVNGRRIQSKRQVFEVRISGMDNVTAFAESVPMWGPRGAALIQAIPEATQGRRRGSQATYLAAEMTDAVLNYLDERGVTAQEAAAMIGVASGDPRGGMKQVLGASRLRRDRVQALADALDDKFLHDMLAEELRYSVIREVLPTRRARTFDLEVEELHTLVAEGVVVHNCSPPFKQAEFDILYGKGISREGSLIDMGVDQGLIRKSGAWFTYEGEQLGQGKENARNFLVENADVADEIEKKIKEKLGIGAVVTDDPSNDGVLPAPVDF
# [10] = target: T5, Tyrosyl-DNA phosphodiesterase 2 (Homo sapiens, UniProt O95551); test: human TDP2 enzyme inhibitors, dose response, biochemical, epi absorbance, IC50 (AID 743297)
# T5 sequence (O95551 whole entry): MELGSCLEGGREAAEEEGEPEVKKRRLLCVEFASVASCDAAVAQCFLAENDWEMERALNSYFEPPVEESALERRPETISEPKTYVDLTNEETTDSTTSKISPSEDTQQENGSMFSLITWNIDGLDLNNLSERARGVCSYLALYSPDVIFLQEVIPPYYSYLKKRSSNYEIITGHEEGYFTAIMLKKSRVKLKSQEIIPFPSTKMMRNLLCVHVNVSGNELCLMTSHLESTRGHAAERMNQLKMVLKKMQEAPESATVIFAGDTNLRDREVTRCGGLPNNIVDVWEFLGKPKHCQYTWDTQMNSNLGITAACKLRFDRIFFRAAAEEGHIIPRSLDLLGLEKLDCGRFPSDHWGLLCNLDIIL
# Bcl-2-related protein A1 [11] = target: T6, Bcl-2-related protein A1 (Mus musculus, UniProt Q07440); test: Bfl-1 inhibitors, primary screen, biochemical, fluorescence polarization, FITC-Bid, mouse (AID 432)
# T6 sequence (Q07440 whole entry): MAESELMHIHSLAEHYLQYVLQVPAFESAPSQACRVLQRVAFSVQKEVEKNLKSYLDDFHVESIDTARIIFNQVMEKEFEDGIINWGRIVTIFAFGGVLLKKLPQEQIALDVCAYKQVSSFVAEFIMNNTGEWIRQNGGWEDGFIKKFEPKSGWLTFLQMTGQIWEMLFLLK
# [12] = target: T7, Voltage-gated N-type calcium channel alpha-1B subunit/Amyloid beta A4 precursor protein-binding family A member 1 (Homo sapiens, UniProt Q00975+Q02410); format: protein assay
# [13] = target: T7, Voltage-gated N-type calcium channel alpha-1B subunit/Amyloid beta A4 precursor protein-binding family A member 1; format: protein assay; remark: listed apart in the source
# Bcl-2-related protein A1 [14] = target: T6, Bcl-2-related protein A1; test: Bfl-1 inhibitors blocking BH3 peptide binding, confirmation, biochemical, TR-FRET, mouse Bfl-1 (AID 621);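 note: TR-FRET binding of GST-Bfl-1 to FITC-labelled Bid peptide via terbium antibody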
# Beta-lactamase [15] = target: Beta-lactamase (Pseudomonas aeruginosa, UniProt Q79MP6);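 note: biochemical dose-response test of metallo-beta-lactamase enzyme inhibition, read out by epi-absorbance; purified recombinant IMP-1 metallo-beta-lactamase with nitrocefin as substrate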
# [16] = target: Dual specificity protein phosphatase 6 (Rattus norvegicus, UniProt Q64346); test: MKP-3 phosphatase inhibitors, primary screen, biochemical, rat enzyme, in vitro (AID 425)
# Beta-lactamase [17] = target: Beta-lactamase (Salmonella choleraesuis (strain SC-B67), UniProt Q5J463)
# [18] = target: Mitogen-activated protein kinase 10 (Homo sapiens, UniProt P53779); test: Dose response biochemical screening assay for inhibitors of c-Jun N-Terminal Kinase 3 (JNK3). [Related pubchem assays: 746 ]
# T7 sequence (Q00975 whole entry): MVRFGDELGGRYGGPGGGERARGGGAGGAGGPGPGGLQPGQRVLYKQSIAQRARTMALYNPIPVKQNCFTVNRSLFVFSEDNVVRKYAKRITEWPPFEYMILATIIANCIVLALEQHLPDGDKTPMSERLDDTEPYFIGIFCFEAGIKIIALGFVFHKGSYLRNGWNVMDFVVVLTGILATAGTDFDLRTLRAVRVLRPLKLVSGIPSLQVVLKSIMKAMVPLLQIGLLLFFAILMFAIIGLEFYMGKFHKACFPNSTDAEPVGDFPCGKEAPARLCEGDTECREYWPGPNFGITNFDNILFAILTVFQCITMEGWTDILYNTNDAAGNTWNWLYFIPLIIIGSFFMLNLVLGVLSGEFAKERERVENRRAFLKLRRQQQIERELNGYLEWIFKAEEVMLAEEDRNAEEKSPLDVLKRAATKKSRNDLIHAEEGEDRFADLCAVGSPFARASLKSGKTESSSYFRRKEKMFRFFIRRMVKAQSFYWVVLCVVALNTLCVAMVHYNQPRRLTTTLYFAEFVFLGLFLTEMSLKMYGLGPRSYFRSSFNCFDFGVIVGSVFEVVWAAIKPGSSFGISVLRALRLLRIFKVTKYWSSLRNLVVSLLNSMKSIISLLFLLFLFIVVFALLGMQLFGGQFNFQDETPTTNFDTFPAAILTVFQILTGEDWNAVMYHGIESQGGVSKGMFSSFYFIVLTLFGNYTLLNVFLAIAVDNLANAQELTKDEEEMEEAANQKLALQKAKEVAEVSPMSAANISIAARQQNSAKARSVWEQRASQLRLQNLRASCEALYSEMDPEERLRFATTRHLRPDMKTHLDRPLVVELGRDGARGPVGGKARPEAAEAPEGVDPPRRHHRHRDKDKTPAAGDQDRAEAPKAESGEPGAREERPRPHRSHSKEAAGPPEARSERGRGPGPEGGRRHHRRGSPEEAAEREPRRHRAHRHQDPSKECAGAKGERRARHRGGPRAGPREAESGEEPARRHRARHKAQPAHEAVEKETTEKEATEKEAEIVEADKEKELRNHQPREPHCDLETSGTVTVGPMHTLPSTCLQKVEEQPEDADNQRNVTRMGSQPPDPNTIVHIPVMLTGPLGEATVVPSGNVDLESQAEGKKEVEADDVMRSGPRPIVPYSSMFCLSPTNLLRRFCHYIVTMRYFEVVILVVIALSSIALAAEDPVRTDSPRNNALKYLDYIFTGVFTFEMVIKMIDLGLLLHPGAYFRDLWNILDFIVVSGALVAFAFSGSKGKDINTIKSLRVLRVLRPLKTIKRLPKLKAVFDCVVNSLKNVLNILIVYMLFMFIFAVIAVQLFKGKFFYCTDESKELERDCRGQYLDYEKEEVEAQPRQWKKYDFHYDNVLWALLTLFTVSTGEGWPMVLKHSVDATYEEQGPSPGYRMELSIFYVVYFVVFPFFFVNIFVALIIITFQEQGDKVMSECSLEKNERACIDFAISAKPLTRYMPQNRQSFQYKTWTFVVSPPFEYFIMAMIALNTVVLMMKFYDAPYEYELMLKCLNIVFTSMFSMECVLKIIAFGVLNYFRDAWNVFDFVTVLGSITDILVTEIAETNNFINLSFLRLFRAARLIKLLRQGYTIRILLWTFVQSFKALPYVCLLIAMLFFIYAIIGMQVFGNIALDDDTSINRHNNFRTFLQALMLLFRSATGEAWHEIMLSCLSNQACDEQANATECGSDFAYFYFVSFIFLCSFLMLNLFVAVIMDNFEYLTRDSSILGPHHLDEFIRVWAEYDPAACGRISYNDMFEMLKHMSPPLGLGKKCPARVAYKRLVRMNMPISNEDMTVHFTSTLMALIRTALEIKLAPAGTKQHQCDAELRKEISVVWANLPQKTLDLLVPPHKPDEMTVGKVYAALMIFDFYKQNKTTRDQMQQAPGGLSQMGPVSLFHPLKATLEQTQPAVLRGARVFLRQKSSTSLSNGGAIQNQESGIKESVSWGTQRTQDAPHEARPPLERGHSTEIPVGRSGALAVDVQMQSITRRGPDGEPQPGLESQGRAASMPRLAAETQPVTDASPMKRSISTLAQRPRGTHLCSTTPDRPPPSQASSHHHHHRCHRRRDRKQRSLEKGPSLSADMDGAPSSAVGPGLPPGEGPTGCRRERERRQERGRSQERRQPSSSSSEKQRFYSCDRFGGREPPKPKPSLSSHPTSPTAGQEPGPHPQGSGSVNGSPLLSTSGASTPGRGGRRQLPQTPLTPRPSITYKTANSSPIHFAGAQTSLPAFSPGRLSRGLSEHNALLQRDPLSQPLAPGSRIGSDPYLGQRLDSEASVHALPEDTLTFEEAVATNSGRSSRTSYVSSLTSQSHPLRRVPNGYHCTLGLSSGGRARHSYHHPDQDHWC
# T7 sequence (Q02410 whole entry): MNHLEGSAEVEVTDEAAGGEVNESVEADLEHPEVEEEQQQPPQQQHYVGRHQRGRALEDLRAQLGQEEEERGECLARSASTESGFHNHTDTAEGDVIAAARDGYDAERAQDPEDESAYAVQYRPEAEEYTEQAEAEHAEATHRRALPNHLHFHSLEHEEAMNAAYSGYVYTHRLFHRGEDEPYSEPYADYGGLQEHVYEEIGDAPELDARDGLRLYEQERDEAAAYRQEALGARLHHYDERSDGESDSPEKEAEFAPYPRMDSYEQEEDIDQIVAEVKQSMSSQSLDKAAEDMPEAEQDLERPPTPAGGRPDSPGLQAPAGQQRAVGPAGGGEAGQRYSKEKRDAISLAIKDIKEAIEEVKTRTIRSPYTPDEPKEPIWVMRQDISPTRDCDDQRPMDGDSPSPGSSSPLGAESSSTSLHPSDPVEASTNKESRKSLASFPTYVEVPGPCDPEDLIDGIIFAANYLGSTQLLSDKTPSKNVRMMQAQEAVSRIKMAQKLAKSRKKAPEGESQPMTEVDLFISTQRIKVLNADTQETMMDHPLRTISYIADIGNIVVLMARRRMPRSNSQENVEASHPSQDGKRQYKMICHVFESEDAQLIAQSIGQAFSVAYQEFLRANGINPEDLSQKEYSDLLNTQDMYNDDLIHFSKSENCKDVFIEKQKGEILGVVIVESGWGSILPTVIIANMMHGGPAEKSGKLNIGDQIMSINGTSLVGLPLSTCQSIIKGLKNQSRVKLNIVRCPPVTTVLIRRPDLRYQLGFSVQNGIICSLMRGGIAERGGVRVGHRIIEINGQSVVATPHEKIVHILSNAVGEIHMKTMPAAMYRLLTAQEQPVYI
# Beta-lactamase (Pseudomonas aeruginosa, UniProt Q79MP6), sequence (Q79MP6 whole entry): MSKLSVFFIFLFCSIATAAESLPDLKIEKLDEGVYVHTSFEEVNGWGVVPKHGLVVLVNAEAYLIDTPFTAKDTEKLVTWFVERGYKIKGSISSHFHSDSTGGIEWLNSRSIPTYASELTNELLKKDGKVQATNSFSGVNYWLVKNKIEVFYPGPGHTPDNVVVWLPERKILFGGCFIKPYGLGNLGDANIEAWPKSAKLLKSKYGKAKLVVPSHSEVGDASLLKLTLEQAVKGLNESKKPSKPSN
# Beta-lactamase (Salmonella choleraesuis (strain SC-B67), UniProt Q5J463), sequence (Q5J463 whole entry): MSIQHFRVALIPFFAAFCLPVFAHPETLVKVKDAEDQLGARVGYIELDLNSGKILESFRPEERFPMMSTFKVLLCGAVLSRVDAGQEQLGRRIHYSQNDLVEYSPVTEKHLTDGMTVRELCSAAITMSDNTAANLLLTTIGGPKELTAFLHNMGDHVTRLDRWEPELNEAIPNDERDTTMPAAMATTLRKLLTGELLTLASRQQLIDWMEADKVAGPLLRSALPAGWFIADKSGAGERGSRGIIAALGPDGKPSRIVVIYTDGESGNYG
# Serine/threonine-protein phosphatase (Homo sapiens, UniProt Q9BPW0), sequence (Q9BPW0 whole entry): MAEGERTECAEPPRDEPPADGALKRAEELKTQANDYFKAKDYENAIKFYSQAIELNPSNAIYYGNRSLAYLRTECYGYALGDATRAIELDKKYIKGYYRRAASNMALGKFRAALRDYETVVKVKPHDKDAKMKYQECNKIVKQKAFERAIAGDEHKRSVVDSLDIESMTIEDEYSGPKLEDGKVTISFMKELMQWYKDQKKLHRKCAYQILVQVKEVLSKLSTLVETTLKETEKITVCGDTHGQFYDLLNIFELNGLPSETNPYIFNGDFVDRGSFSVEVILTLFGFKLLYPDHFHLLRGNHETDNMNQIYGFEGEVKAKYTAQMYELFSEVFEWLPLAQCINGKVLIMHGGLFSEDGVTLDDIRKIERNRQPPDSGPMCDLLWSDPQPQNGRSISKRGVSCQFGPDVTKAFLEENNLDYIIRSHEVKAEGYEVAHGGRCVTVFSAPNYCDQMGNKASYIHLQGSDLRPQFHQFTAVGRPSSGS
# Dual specificity protein phosphatase 6, sequence (Q64346 whole entry): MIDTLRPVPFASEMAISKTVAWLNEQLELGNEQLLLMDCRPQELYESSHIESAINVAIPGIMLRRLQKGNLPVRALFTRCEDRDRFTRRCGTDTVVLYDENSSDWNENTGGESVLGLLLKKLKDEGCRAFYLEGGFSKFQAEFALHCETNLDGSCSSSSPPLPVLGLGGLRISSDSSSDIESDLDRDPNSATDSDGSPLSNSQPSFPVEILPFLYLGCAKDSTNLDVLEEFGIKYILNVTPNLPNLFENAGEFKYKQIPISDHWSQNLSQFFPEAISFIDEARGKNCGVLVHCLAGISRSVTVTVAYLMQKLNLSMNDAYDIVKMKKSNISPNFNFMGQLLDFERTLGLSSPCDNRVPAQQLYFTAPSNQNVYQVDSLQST
# Galanin receptor type 2, sequence (O43603 whole entry): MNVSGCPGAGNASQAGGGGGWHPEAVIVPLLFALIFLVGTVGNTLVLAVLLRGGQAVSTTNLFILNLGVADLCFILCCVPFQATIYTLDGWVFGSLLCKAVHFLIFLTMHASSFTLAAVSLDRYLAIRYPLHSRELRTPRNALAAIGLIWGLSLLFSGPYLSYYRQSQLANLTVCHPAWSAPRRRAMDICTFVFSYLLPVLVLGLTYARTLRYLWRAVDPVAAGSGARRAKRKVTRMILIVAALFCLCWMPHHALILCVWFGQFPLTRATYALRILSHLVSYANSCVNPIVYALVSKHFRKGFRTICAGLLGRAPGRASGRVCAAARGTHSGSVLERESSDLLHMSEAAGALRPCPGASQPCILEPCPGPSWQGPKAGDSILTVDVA
smiles,measurement,setting,value
c1ccc2c(c1)OCC(CNc1ncnc3sccc13)O2 (configuration not stated),EC50,[1],> 150 µM (inactive)
same,IC50,Galanin receptor type 2,> 42 µM (not active)
same,EC50,[2],0.27 µM (active)
same,EC50,[3],> 180 µM (inactive)
same,AC50,INS1,0.941 µM (active)
same,EC50,[4],> 150 µM (inactive)
same,IC50,Protein Wnt-3a,1.83 µM (active)
O=C(/C=C/c1ccc(O)cc1)c1ccc(/N=C2\C(=O)c3ccccc3C(O)=C2N2CCCCC2)cc1,IC50,[5],> 67 µM (not active)
same,CC50,[6],8.74 µM (active)
same,IC50,[7],26.4 µM (not active)
same,AC50,[8],> 380 µM (inactive)
same,IC50,[9],2.91 µM (active)
same,EC50,Protein RecA,0.707 µM (active)
same,IC50,[10],> 128 µM (inactive)
O=C1c2ccccc2-c2onc3ccc(NCCCn4ccnc4)c1c23,IC50,Bcl-2-related protein A1 [11],> 100 µM (not active)
same,IC50,[12],3.18 µM (active)
same,IC50,[13],> 50 µM (inactive)
same,IC50,Bcl-2-related protein A1 [14],> 100 µM (not active)
same,IC50,Beta-lactamase [15],5.38 µM (active)
same,IC50,[16],1.19 µM (active)
same,IC50,Beta-lactamase [17],3.02 µM (active)
same,IC50,[18],22.2 µM (not active)
